Experimental data from patent US20220227729A1, “IDENTIFICATION AND USE OF KRAS INHIBITORS” (Bayer Aktiengesellschaft, priority 2019, published 2022).

Experiments:
KRAS^G12C = KRAS^G12C (Homo sapiens, UniProt P01116, G12C); assay: KRAS G12C activation by SOS1cat assay (On-assay), HTRF; settings: SOS1cat mediated loading of GST-KRAS G12C-GDP with fluorescent GTP analogue; 180 min preincubation; 20° C.; read-out: IC50 value biochemical KRAS^G12C activation assay
Method: (§1) Preparation of test compound dilutions. A 100-fold concentrated solution of the test compound (50 nL) in DMSO was transferred to microtiter test plates (384 or 1,536 wells, Greiner Bio-One, Germany) using either a Hummingbird liquid handler (Digilab, MA, USA) or an Echo acoustic system (Labcyte, CA, USA). Plates were sealed with adhesive foil or heat-sealed and stored at −20° C. until use. Serial dilutions of test compounds were prepared in 100% DMSO using a Precision Pipetting System (BioTek, USA).
(§2) Measurement and evaluation of inhibition data, calculation of IC50 values. Homogeneous time-resolved fluorescence (HTRF) was measured with a PHERAstar reader (BMG, Germany) using the HTRF module (excitation: 337 nm; emission 1: 620 nm, emission 2: 665 nm). The ratio of the emissions at 665 and 620 nm was used as the specific signal for further evaluation. The data were normalized using the controls: DMSO=0% inhibition, inhibition control wells with inhibitor control solution=100% inhibition. Compounds were tested in duplicates at up to 11 concentrations (e.g. 20 μM, 5.7 μM, 1.6 μM, 0.47 μM, 0.13 μM, 38 nM, 11 nM, 3.1 nM, 0.89 nM, 0.25 nM and 0.073 nM). IC50 values were calculated using a four-parameter fit, with a commercial software package (Genedata Screener, Switzerland).
(§3) KRAS^G12C activation by SOS1^cat assay (“On-assay”). This assay quantifies SOS1^cat mediated loading of KRAS^G12C-GDP with a fluorescent GTP analogue. Detection of successful loading was achieved by measuring resonance energy transfer from anti-GST-terbium (FRET donor) bound to GST-KRAS^G12c to the loaded fluorescent GTP analogue (FRET acceptor). The fluorescent GTP analogue EDA-GTP-DY-647P1 [2′/3′-O-(2-aminoethyl-carbamoyl)guanosine-5′-triphosphate labelled with DY-647P1 (Dyomics GmbH, Germany)] was synthesized by Jena Bioscience (Germany) and supplied as a 1 mM aqueous solution. A KRAS^G12C working solution was prepared in assay buffer [10 mM HEPES pH 7.4 (AppliChem), 150 mM NaCl (Sigma), 5 mM MgCl2 (Sigma), 1 mM DTT (Thermo Fisher), 0.05% BSA Fraction V pH 7.0 (ICN Biomedicals), 0.0025% (v/v) Igepal (Sigma)] containing 100 nM GST-KRAS^G12C and 2 nM anti-GST-terbium (Cisbio, France). A SOS1^cat working solution was prepared in assay buffer containing 20 nM SOS1^cat and 200 nM EDA-GTP-DY-647P1. An inhibitor control solution was prepared in assay buffer containing 200 nM EDA-GTP-DY-647P1 without SOS1^cat. All steps of the assay were performed at 20° C. A volume of 2.5 μL of the KRAS^G12C working solution was added to all wells of the test plate using a Multidrop dispenser (Thermo LabSystems). After 180 min, 2.5 μL of the SOS1^cat working solution was added to all wells, except for the inhibitor control solution wells. After 30 min incubation, HTRF was measured.

[1] = target: recombinant kRas mutant (G12C; C51S; C80L; C118S) (Homo sapiens, UniProt P01116, C118S/C51S/C80L/G12C); assay: Covalent binding assay, intact mass LC-MS; settings: 25 μM protein, 25 μM compound, room temperature, 2 h
Method: The percentage of covalent adduct formation at KRas G12C was determined by intact mass determination. To this end 25 μM recombinant kRas mutant (G12C; C51S; C80L; C118S) (storage buffer: 50 mM Tris, pH=8; 50 mM NaCl) were incubated with 25 μM of compound (1% v/v final DMSO concentration) at room temperature for 2 h. For LC-MS analysis the reaction was acidified by adding 4 μL of 4% v/v TFA to 20 μL reaction volume.
Liquid chromatography-mass spectrometry (LC-MS) analysis was performed using a Waters SYNAPT G2-S quadrupole time-of-flight mass spectrometer connected to a Waters nanoAcquity UPLC system. Samples were loaded on a 2.1×5 mm mass prep C4 guard column (Waters) and desalted with a short gradient (3 min.) of increasing concentrations of acetonitrile at a flow rate of 100 μL/min. Spectra were analyzed by using MassLynx v4.1 software and deconvoluted with the MaxEnt1 algorithm.
Percent conversion was determined by the ratio of signal intensities of apo-kRas and kRas+inhibitor.

KRAS^WT = KRAS^WT (Homo sapiens, UniProt P01116); assay: Wild-type KRAS activation by SOS1cat assay, HTRF; settings: SOS1cat mediated loading of GST-KRAS WT-GDP with fluorescent GTP analogue; 50 nM GST-KRAS WT; read-out: IC50 value biochemical KRAS^wt activation assay
Method: as §1, §2, §3
Wild-type KRAS activation by SOS1^cat assay. This assay quantifies human SOS1^cat mediated loading of wild-type GST-KRAS^WT-GDP with a fluorescent GTP analogue. The assay was performed similar to the KRAS^G12C activation by SOS1^cat assay. GST-KRAS^G12C was replaced by GST-KRAS^WT, which was used at 50 nM final concentration.

SMILES: C=CC(=O)N1CCC(c2cc3ccc(-c4c(O)cccc4F)cc3c(=O)[nH]2)C1 (stereo not shown) [Example 1, 7-(2-Fluoro-6-hydroxyphenyl)-3-[1-(prop-2-enoyl)pyrrolidin-3-yl]isoquinolin-1(2H)-one]
- IC50 (KRAS^G12C): 4.7 µM

SMILES: C=CC(=O)N1CCC(c2cc3ccc(-c4cccc5ncccc45)cc3c(=O)[nH]2)C1 (stereo not shown) [Example 2, 3-[1-(Prop-2-enoyl)pyrrolidin-3-yl]-7-(quinolin-5-yl)isoquinolin-1(2H)-one]
- IC50 (KRAS^G12C): > 9 µM
- Covalent Binding Assay (% binding) [1]: 20%

SMILES: C=CC(=O)N1CCC(c2cc3ccc(-c4cccc5[nH]ccc45)cc3c(=O)[nH]2)C1 (stereo not shown) [Example 3, 7-(1H-Indol-4-yl)-3-[1-(prop-2-enoyl)pyrrolidin-3-yl]isoquinolin-1(2H)-one]
- IC50 (KRAS^G12C): > 20 µM
- Covalent Binding Assay (% binding) [1]: 8%
- IC50 (KRAS^WT): > 20 µM

SMILES: C=CC(=O)N1CCC(c2cc3ccc(-c4ccc(F)cc4F)cc3c(=O)[nH]2)C1 (stereo not shown) [Example 4, 7-(2,4-Difluorophenyl)-3-[1-(prop-2-enoyl)pyrrolidin-3-yl]isoquinolin-1(2H)-one]
- IC50 (KRAS^G12C): 5 µM

SMILES: C=CC(=O)N1CCC(c2cc3ccc(-c4ccccc4CC)cc3c(=O)[nH]2)C1 (stereo not shown) [Example 5, 7-(2-Ethylphenyl)-3-[1-(prop-2-enoyl)pyrrolidin-3-yl]isoquinolin-1(2H)-one]
- IC50 (KRAS^G12C): 8 µM
- Covalent Binding Assay (% binding) [1]: 60%

SMILES: C=CC(=O)N1CCC(c2cc3ccc(-c4ccc(F)c(OCC)c4F)cc3c(=O)[nH]2)C1 (stereo not shown) [Example 6, 7-(3-Ethoxy-2,4-difluorophenyl)-3-[1-(prop-2-enoyl)pyrrolidin-3-yl]isoquinolin-1(2H)-one]
- IC50 (KRAS^G12C): > 20 µM
- Covalent Binding Assay (% binding) [1]: 3%
- IC50 (KRAS^WT): > 20 µM

SMILES: C=CC(=O)N1CCC(c2cc3ccc(-c4ccc(F)c(F)c4F)cc3c(=O)[nH]2)C1 (stereo not shown) [Example 7, 3-[1-(Prop-2-enoyl)pyrrolidin-3-yl]-7-(2,3,4-trifluorophenyl)isoquinolin-1(2H)-one]
- IC50 (KRAS^G12C): > 7 µM
- Covalent Binding Assay (% binding) [1]: 31%
- IC50 (KRAS^WT): > 20 µM

SMILES: C=CC(=O)N1CCC(c2cc3ccc(-c4cc(F)cc(F)c4)cc3c(=O)[nH]2)C1 (stereo not shown) [Example 8, 7-(3,5-Difluorophenyl)-3-[1-(prop-2-enoyl)pyrrolidin-3-yl]isoquinolin-1(2H)-one]
- Covalent Binding Assay (% binding) [1]: 0%

SMILES: C=CC(=O)N1CCC(c2cc3cc(OC)c(-c4ncccc4F)cc3c(=O)[nH]2)C1 (stereo not shown) [Example 9, 7-(3-Fluoropyridin-2-yl)-6-methoxy-3-[-1-(prop-2-enoyl)pyrrolidin-3-yl]isoquinolin-1(2H)-one]
- IC50 (KRAS^G12C): > 20 µM
- Covalent Binding Assay (% binding) [1]: 0%
- IC50 (KRAS^WT): > 20 µM

SMILES: C=CC(=O)N1CCC(c2cc3cc(O)c(-c4ncccc4F)cc3c(=O)[nH]2)C1 (stereo not shown) [Example 10, 3-(1-Acryloylpyrrolidin-3-yl)-7-(3-fluoropyridin-2-yl)-6-hydroxy-isoquinolin-1(2H)-one]
- IC50 (KRAS^G12C): > 20 µM
- Covalent Binding Assay (% binding) [1]: 0%
- IC50 (KRAS^WT): > 20 µM

SMILES: C=CC(=O)N1CCC(c2nc3ccc(-c4c(F)cccc4OC)cc3c(=O)[nH]2)C1 (stereo not shown) [Example 11]
- IC50 (KRAS^G12C): 16 µM
- Covalent Binding Assay (% binding) [1]: 41%
- IC50 (KRAS^WT): > 20 µM

SMILES: C=CC(=O)N1CCC(c2nc3ccc(-c4ccccc4F)cc3c(=O)[nH]2)C1 (stereo not shown) [Example 12, 6-(2-Fluorophenyl)-2-[1-(prop-2-enoyl)pyrrolidin-3-yl]quinazolin-4(3H)-one]
- IC50 (KRAS^G12C): 6.2 µM
- Covalent Binding Assay (% binding) [1]: 70%
- IC50 (KRAS^WT): > 20 µM

SMILES: C=CC(=O)N1CCC(c2nc3ccc(-c4ccc(F)cc4F)cc3c(=O)[nH]2)C1 (stereo not shown) [Example 13, 6-(2,4-Difluorophenyl)-2-[1-(prop-2-enoyl)pyrrolidin-3-yl]quinazolin-4(3H)-one]
- IC50 (KRAS^G12C): 8.4 µM
- Covalent Binding Assay (% binding) [1]: 57%
- IC50 (KRAS^WT): > 20 µM

SMILES: C=CC(=O)N1CCC(c2nc3ccc(-c4cccc5ncccc45)cc3c(=O)[nH]2)C1 (stereo not shown) [Example 14, 2-[1-(Prop-2-enoyl)pyrrolidin-3-yl]-6-(quinolin-5-yl)quinazolin-4(3H)-one]
- IC50 (KRAS^G12C): > 20 µM
- Covalent Binding Assay (% binding) [1]: 22%
- IC50 (KRAS^WT): > 20 µM

SMILES: C=CC(=O)N1CCC(c2nc3ccc(-c4ccccc4CC)cc3c(=O)[nH]2)C1 (stereo not shown) [Example 15, 6-(2-Ethylphenyl)-2-[1-(prop-2-enoyl)pyrrolidin-3-yl]quinazolin-4(3H)-one]
- IC50 (KRAS^G12C): 7.3 µM
- Covalent Binding Assay (% binding) [1]: 52%
- IC50 (KRAS^WT): > 20 µM

SMILES: C=CC(=O)N1CCC(c2nc3ccc(-c4cc(Cl)cc(C#N)c4)cc3c(=O)[nH]2)C1 (stereo not shown) [Example 16, 3-Chloro-5-{4-oxo-2-[1-(prop-2-enoyl)pyrrolidin-3-yl]-3,4-dihydroquinazolin-6-yl}benzonitrile]
- IC50 (KRAS^G12C): > 20 µM
- Covalent Binding Assay (% binding) [1]: 0%
- IC50 (KRAS^WT): > 20 µM

SMILES: C=CC(=O)N1CCC(c2nc3ccc(-c4c(O)cccc4F)cc3c(=O)[nH]2)C1 (stereo not shown) [Example 17, 6-(2-Fluoro-6-hydroxyphenyl)-2-[1-(prop-2-enoyl)pyrrolidin-3-yl]quinazolin-4(3H)-one]
- IC50 (KRAS^G12C): 4.9 µM

SMILES: C=CC(=O)N1CCC(c2nc3ccc(-c4cncc5ccccc45)cc3c(=O)[nH]2)C1 (stereo not shown) [Example 18, 6-(Isoquinolin-4-yl)-2-[1-(prop-2-enoyl)pyrrolidin-3-yl]quinazolin-4(3H)-one]
- IC50 (KRAS^G12C): > 20 µM
- Covalent Binding Assay (% binding) [1]: 4%
- IC50 (KRAS^WT): > 20 µM

SMILES: C=CC(=O)N1CCC(c2nc3ccc(-c4sc(C)nc4C)cc3c(=O)[nH]2)C1 (stereo not shown) [Example 19, 6-(2,4-dimethyl-1,3-thiazol-5-yl)-2[1-(prop-2-enoyl)pyrrolidin-3-yl]quinazolin-4(3H)-one]
- IC50 (KRAS^G12C): > 20 µM
- Covalent Binding Assay (% binding) [1]: 4%
- IC50 (KRAS^WT): > 20 µM

SMILES: C=CC(=O)N1CCC(c2cc3cc(Cl)c(-c4c(O)cccc4F)cc3c(=O)[nH]2)C1 (stereo not shown) [Example 27, 6-Chloro-7-(2-fluoro-6-hydroxyphenyl)-3-[1-(prop-2-enoyl)pyrrolidin-3-yl]isoquinolin-1(2H)-one]
- IC50 (KRAS^G12C): 16 µM

SMILES: C=CC(=O)N1CCC(c2cc3ncc(-c4c(O)cccc4F)cc3c(=O)[nH]2)C1 (stereo not shown) [Example 29, 3-(2-Fluoro-6-hydroxyphenyl)-7-[1-(prop-2-enoyl)pyrrolidin-3-yl]-1,6-naphthyridin-5(6H)-one]
- IC50 (KRAS^G12C): 2.8 µM
- Covalent Binding Assay (% binding) [1]: 80%

SMILES: C=CC(=O)N1CCC(c2cc3cnc(-c4c(O)cccc4F)cc3c(=O)[nH]2)C1 (stereo not shown) [Example 42, 7-(2-Fluoro-6-hydroxyphenyl)-3-[1-(prop-2-enoyl)pyrrolidin-3-yl]-2,6-naphthyridin-1(2H)-one]
- IC50 (KRAS^G12C): 1.3 µM
- Covalent Binding Assay (% binding) [1]: 61%
